Like-named read-outs stand apart in the source and are kept apart here.
What was measured:
[1] = tested on: Influenza (swine); assay: cells; format: cell-based
[2] = cytotoxicity in G-2 cells; format: cell-based; details: human
Procedure: In preparing the compounds for testing, they were handled aseptically throughout. The compounds were dissolved in a minimum amount of a suitable solvent and the final dilutions were made up to the required volume in a complete culture medium used in assay and in concentration not exceeding the predetermined maximum non-toxic levels.
The cell culture used in all primary in vitro anti-myxovirus assays was an established cell line of the human conjunctiva (G-2 cells). The cytotoxic studies of each of the compounds were performed prior to testing for antiviral activity to determine level of response of the cells to the potentially toxic action of the compounds.

[3] = tested on: Influenza A2 /Aichi/3/68; assay: in vitro anti-myxovirus activity, influenza A2 /Aichi/3/68, G-2 cells (% inhibition of hemadsorption); format: cell-based, Influenza A2 /Aichi/3/68 (human); details: for inhibition at 40 µg/mL: 40 μg/ml; for inhibition at 30 µg/mL / inhibition at 50 µg/mL / inhibition at 60 µg/mL / inhibition at 70 µg/mL / inhibition at 80 µg/mL / inhibition at 90 µg/mL / inhibition at 100 µg/mL: Homo sapiens; for inhibition at 30 µg/mL: 30 μg/ml; for inhibition at 50 µg/mL: 50 μg/ml; for inhibition at 60 µg/mL: 60 μg/ml; for inhibition at 70 µg/mL: 70 μg/ml; for inhibition at 80 µg/mL: 80 μg/ml; for inhibition at 90 µg/mL: 90 μg/ml; for inhibition at 100 µg/mL: 100 μg/ml, read-out: % Inhibition
[4] = tested on: influenza A2 virus Aichi/2/68; assay: preventive control of influenza A2 in mice, compound I at different levels; format: in vivo, influenza A2 virus Aichi/2/68 (in Charles River white mice)
Procedure: In the following experiment, compound I was tested at different levels for preventive control of influenza as follows:
Charles River white mice, starting weight: 10-12 g;
12 mice per group (24 mice as control).
Virus: Mice were inoculated intranasally with influenza
A2 virus Aichi/2/68, with a titer of 2,88 LD50,
Mice were divided into 5 groups and received
day intraperitoneally, once a day for 16 days
beginning one day prior to infection with the
virus. Mice were weighed each day before inocula-
tions and doses adjusted according to the actual
weight of each animal. The active compound was
suspended in phosphate buffered saline.

[5] = toxicity of in vitro active anti-myxovirus compounds in mice; details: mouse, in vivo
[6] = tested on: mice; assay: as above
[7] = tested on: influenza viruses; assay: relative antiviral activity in vitro; format: cell-based; details: words
[8] = 100 mg/kg, day 10 postinfection
[9] = 100 mg/kg, day 11 postinfection
[10] = 100 mg/kg, day 12 postinfection
[11] = 100 mg/kg, day 13 postinfection
[12] = 100 mg/kg, day 14 postinfection

## N[C@H]1C[C@@H]2C[C@H]1c1ccccc12 (relative stereo) [Compound I]
[1]; 40 μg/ml
  inhibition at 40 µg/mL: 0%
[1]; 50 μg/ml, listed as 1,2,3,4-TETRAHYDRO-1,4-[…]-ENDO-2-AMINE.HCl
  % Inhibition: 7%
[1]; 80 μg/ml
  inhibition at 80 µg/mL: 90%
[1]; 90 μg/ml
  inhibition at 90 µg/mL: 97%
[1]; 100 μg/ml
  inhibition at 100 µg/mL: 100%
[2]; 50% inhibition of cell growth, read-out: Cytotoxicity CTD50
  CC50: > 100 µg/mL
[2]; maximal non-toxic concentration, read-out: Cytotoxicity CTD0
  MNTC: > 100 µg/mL
[3]; 17.8 TCID50
  inhibition at 40 µg/mL: 13%
  inhibition at 30 µg/mL: 0%
  inhibition at 50 µg/mL: 30%
  inhibition at 60 µg/mL: 87%
  inhibition at 70 µg/mL: 90%
  inhibition at 80 µg/mL: 97%
  inhibition at 90 µg/mL: 97%
  inhibition at 100 µg/mL: 97%
[3]; 178 TCID50
  inhibition at 40 µg/mL: 0%
  inhibition at 30 µg/mL: 0%
  inhibition at 50 µg/mL: 10%
  inhibition at 60 µg/mL: 37%
  inhibition at 70 µg/mL: 53%
  inhibition at 80 µg/mL: 77%
  inhibition at 90 µg/mL: 80%
  inhibition at 100 µg/mL: 90%
[4]; 40 mg/kg
  Survivors %: 8.3%
  Survivors S/T: 1/12
[4]; 40 mg/kg, day 8 postinfection
  Cumulative mortality %: 8.3%
  Cumulative mortality N: 1
[4]; 40 mg/kg, day 9 postinfection
  Cumulative mortality %: 41.7%
  Cumulative mortality N: 5
[4]; 40 mg/kg, day 10 postinfection
  Cumulative mortality %: 58.3%
  Cumulative mortality N: 7
[4]; 40 mg/kg, day 11 postinfection
  Cumulative mortality %: 75.0%
  Cumulative mortality N: 9
[4]; 40 mg/kg, day 12 postinfection
  Cumulative mortality %: 83.3%
  Cumulative mortality N: 10
[4]; 40 mg/kg, day 13 postinfection
  Cumulative mortality %: 91.6%
  Cumulative mortality N: 11
[4]; 40 mg/kg, day 14 postinfection
  Cumulative mortality %: 91.6%
  Cumulative mortality N: 11
[4]; 55 mg/kg
  Survivors %: 8.3%
  Survivors S/T: 1/12
[4]; 55 mg/kg, day 8 postinfection
  Cumulative mortality %: 8.3%
  Cumulative mortality N: 1
[4]; 55 mg/kg, day 9 postinfection
  Cumulative mortality %: 16.7%
  Cumulative mortality N: 2
[4]; 55 mg/kg, day 10 postinfection
  Cumulative mortality %: 41.7%
  Cumulative mortality N: 5
[4]; 55 mg/kg, day 11 postinfection
  Cumulative mortality %: 58.3%
  Cumulative mortality N: 7
[4]; 55 mg/kg, day 12 postinfection
  Cumulative mortality %: 75.0%
  Cumulative mortality N: 9
[4]; 55 mg/kg, day 13 postinfection
  Cumulative mortality %: 91.6%
  Cumulative mortality N: 11
[4]; 55 mg/kg, day 14 postinfection
  Cumulative mortality %: 91.6%
  Cumulative mortality N: 11
[4]; 70 mg/kg
  Survivors %: 50.0%
  Survivors S/T: 6/12
[4]; 70 mg/kg, day 8 postinfection
  Cumulative mortality %: 8.3%
  Cumulative mortality N: 1
[4]; 70 mg/kg, day 9 postinfection
  Cumulative mortality %: 8.3%
  Cumulative mortality N: 1
[4]; 70 mg/kg, day 10 postinfection
  Cumulative mortality %: 41.7%
  Cumulative mortality N: 5
[4]; 70 mg/kg, day 11 postinfection
  Cumulative mortality %: 50.0%
  Cumulative mortality N: 6
[4]; 70 mg/kg, day 12 postinfection
  Cumulative mortality %: 50.0%
  Cumulative mortality N: 6
[4]; 70 mg/kg, day 13 postinfection
  Cumulative mortality %: 50.0%
  Cumulative mortality N: 6
[4]; 70 mg/kg, day 14 postinfection
  Cumulative mortality %: 50.0%
  Cumulative mortality N: 6
[4]; 85 mg/kg
  Survivors %: 50.0%
  Survivors S/T: 6/12
[4]; 85 mg/kg, day 8 postinfection
  Cumulative mortality %: 0%
  Cumulative mortality N: 0
[4]; 85 mg/kg, day 9 postinfection
  Cumulative mortality %: 8.3%
  Cumulative mortality N: 1
[4]; 85 mg/kg, day 10 postinfection
  Cumulative mortality %: 25.0%
  Cumulative mortality N: 3
[4]; 85 mg/kg, day 11 postinfection
  Cumulative mortality %: 33.3%
  Cumulative mortality N: 4
[4]; 85 mg/kg, day 12 postinfection
  Cumulative mortality %: 50.0%
  Cumulative mortality N: 6
[4]; 85 mg/kg, day 13 postinfection
  Cumulative mortality %: 50.0%
  Cumulative mortality N: 6
[4]; 85 mg/kg, day 14 postinfection
  Cumulative mortality %: 50.0%
  Cumulative mortality N: 6
[4]; 100 mg/kg
  Survivors %: 66.4%
  Survivors S/T: 8/12
[4]; 100 mg/kg, day 8 postinfection
  Cumulative mortality %: 0%
  Cumulative mortality N: 0
[4]; 100 mg/kg, day 9 postinfection
  Cumulative mortality %: 0%
  Cumulative mortality N: 0
[4]; [8]
  Cumulative mortality %: 16.7%
  Cumulative mortality N: 2
[4]; [9]
  Cumulative mortality %: 25.0%
  Cumulative mortality N: 3
[4]; [10]
  Cumulative mortality %: 33.3%
  Cumulative mortality N: 4
[4]; [11]
  Cumulative mortality %: 33.3%
  Cumulative mortality N: 4
[4]; [12]
  Cumulative mortality %: 33.3%
  Cumulative mortality N: 4
[5]
  MTD: ≤ 100 mg/kg
[5]; ip, 50% toxic dose LD50, acute, I/P, acute
  LD50: 100 mg/kg
[5]; ip, 50% toxic dose LD50, subacute, I/P, subacute
  LD50: 100 mg/kg
[5]; po, 50% toxic dose LD50, acute, P/O, acute
  LD50: 275 mg/kg
[5]; po, 50% toxic dose LD50, subacute, P/O, subacute
  LD50: 250 to 275 mg/kg
[6]; I/P
  Maximal non-toxic dose LD0, acute: 125 mg/kg
  Maximal non-toxic dose LD0, subacute: 100 mg/kg
[6]; P/O
  Maximal non-toxic dose LD0, acute: 250 mg/kg
  Maximal non-toxic dose LD0, subacute: 225 mg/kg

## C[C@@H]1[C@H](N)[C@H]2C[C@@H]1c1ccccc12 (relative stereo) [IV, 1,2,3,4-tetrahydro-1,4-methanonaphthalen-endo-3-methyl-endo-2-amine]
[7]
  relative antiviral activity: relatively low antiviral activity
